Patent US8067456B2 (AEterna Zentaris GmbH, priority 2004, dated 2011)

Legend:
[1] = biological target: T1, NK1 (h) (Homo sapiens, UniProt P25103); test: NK1 receptor-ligand binding assay (Cerep); details: for nH: Hill coefficient of competition plot; for IC50 / Ki: ligand [Sar9, Met(O2)11]-SP
T1 construct: Cerep Assay 826-1h
Description: (§1) Receptor affinities (IC50 values) of the compounds of the invention of the general formulae (I, Ia and Ib) were measured as described by E. Heuillet et al., J. Neurochem., 60: 868-876 (1993) and D. Aharony et al. Mol. Pharmacol, 44: 356-363 (1993) commercially by Cerep (Assay 826-1h on page 67 and Assay 826-2h on page 68 of the 2005 catalogue).
(§2) FIGS. 8-11 show competition plots measured in the NK1 and NK2 receptor-ligand binding assays with [Sar^9, Met(O2)^11]-SP for NK1 and [Nle^10]-NKA(4-10) for NK2, and the selected substances (68 and 76).

[2] = Metabolic stability in rat liver microsomes; assay type: in vitro ADME; details: 37° C., NADPH
Description: (§3) The metabolic stability in relation to liver microsomes (species human, rat) was determined in accordance with the following description: the substances were incubated at a test concentration of 1 […] An HPLC MS/MS method was subsequently used to quantify the unmetabolized amount of starting compound relative to 100%.

[3] = Metabolic stability in human liver microsomes; assay type: in vitro ADME; details: 37° C., NADPH
Description: as §3

[4] = biological target: T2, NK2 (h) (Homo sapiens, UniProt P21452); test: NK2 receptor-ligand binding assay (Cerep); details: for nH: Hill coefficient of competition plot; for IC50 / Ki: ligand [Nle10]-NKA(4-10)
T2 construct: Cerep Assay 826-2h
T2 sequence (P21452 1-398): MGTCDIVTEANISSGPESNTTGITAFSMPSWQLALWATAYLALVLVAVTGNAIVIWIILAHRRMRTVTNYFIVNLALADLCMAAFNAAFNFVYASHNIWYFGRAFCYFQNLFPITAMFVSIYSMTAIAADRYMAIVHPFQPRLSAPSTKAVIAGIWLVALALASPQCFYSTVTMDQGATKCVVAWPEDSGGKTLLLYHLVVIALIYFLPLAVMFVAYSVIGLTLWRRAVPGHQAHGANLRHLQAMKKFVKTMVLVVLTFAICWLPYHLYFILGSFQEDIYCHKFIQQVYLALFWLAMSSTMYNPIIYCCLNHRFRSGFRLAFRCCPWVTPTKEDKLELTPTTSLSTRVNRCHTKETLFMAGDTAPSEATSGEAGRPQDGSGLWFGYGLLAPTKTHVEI
Description: as §1, §2

[5] = biological target: T3, LHRH receptor (Rattus norvegicus, UniProt P30969); test: LHRH receptor-ligand binding assay (membrane preparations from rat pituitary cells); details: competition with 0.05 nM [125I][D-Trp6]-LHRH, 90 min, 4° C., rat pituitary membranes
T3 construct: rat pituitary cells which naturally strongly express the LHRH receptor; from tissue; host or cells: rat pituitary cells (membrane preparation)
T3 sequence (P30969 1-327): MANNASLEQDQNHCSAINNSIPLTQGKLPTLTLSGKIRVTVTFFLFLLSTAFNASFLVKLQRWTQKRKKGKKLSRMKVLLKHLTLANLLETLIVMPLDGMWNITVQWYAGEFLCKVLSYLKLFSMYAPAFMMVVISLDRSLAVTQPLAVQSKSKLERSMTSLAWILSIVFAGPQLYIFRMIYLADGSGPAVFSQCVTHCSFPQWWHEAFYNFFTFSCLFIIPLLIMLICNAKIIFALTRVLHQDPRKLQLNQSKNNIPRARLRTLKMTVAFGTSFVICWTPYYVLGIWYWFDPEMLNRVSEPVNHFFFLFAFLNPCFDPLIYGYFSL
Description: Heterologous competition experiments were carried out using membrane preparations from rat pituitary cells which naturally strongly express the LHRH receptor. The ligand used in this case was [^125I][D-Trp^6]-LHRH in a concentration of 0.05 nM. Unlabeled [D-Trp^6]-LHRH was used in a concentration of 1 μM, or the test substance was used in the desired concentration, for competition. After an incubation time of 90 minutes at 4° C., the bound ligand was measured by scintillation (Halmos et al., Proc. Natl. Acad. Sci. USA, 1996, 93, 2398).
The result obtained was the percentage proportion of bound ligand in the presence of the competitor related to the specifically bound proportion of the control (see result for selected compounds in Table 3). EC50 values were calculated by nonlinear regression analysis of the competition plots.

[6] = test system: castrated rats; test: LH concentration suppression in the plasma of castrated rats; assay type: in vivo, rat; details: 19 mg/kg oral in Solutol HS15/1,2-propane-diol (3:1)
Description: The LH concentration in the plasma of castrated rats was measured using the rat luteinizing hormone (rLH) enzyme immunoassay (EIA) system ELISA (RPN 2562) from Amersham Pharmacia Biotech or of LH RIA-AH R002 rats; from Biocode-Hycel, Liege, Belgium. All other chemicals used were from commercial sources in the highest purity available.
10 days before the start of the test, male Sprague Dawley rats (Harlan Winkelmann, Germany) weighing 190-220 g were anesthetized with ether and castrated and provided with a silicone catheter for permanent blood sampling.
At the start of the test, before administration of the substance, blood samples were taken and the LH level determined. The substance was then administered orally in the desired concentration. The number of animals used in each group was 8. At the stated times, further blood samples were taken. The blood was collected in heparinized sample tubes on ice, and the plasma was obtained by centrifugation at 3000 g for 10 minutes. The plasma samples were stored at −20° C. until the LH concentration was measured by ELISA or RIA. The LH concentration was determined by an ELISA or RIA in duplicate determination in accordance with the manufacturer's (Amersham Pharmacia Biotech; Biocode-Hycel) instructions.
All the other data points for each individual animal were calculated as relative concentration compared with the LH concentration before treatment.

[7] = in vivo; cited from earlier work
[8] = biological target: LHRH receptor (Homo sapiens, UniProt P30968); details: prior art, N. Cho et al. J. Med. Chem. 41, 4190-4195 (1998); cited from earlier work
Chain of LHRH receptor (Homo sapiens, UniProt P30968) (P30968 whole entry): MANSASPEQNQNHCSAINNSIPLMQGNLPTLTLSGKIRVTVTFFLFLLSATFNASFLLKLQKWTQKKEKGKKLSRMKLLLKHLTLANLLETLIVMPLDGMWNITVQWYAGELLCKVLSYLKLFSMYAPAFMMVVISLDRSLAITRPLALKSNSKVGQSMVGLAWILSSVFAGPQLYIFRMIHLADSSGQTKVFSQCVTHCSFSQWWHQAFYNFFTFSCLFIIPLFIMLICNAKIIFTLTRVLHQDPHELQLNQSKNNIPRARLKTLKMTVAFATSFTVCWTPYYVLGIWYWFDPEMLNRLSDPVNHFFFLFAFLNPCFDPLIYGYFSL

[9] = Saturation solubility in water; assay type: physicochemical; details: water, thermodynamic from solid; maximum of 1% DMSO added, HPLC UV
Description: The saturation solubility in water was determined in accordance with the following description: to initiate dissolving of the substances and to improve the wetting of the samples, a maximum of 1% DMSO was added. The content was checked by using an HPLC UV method.

T1 sequence (P25103 whole entry): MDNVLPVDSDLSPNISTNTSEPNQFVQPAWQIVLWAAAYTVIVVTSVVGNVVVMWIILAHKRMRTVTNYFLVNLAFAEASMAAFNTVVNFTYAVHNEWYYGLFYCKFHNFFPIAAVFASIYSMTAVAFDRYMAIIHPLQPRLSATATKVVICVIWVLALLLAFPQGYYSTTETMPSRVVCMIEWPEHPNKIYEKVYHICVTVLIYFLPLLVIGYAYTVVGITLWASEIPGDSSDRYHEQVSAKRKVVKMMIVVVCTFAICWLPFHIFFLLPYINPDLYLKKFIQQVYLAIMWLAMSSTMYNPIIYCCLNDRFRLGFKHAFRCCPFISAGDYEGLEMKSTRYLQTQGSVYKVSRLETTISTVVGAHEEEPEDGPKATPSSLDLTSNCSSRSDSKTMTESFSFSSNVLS

nH [1]	IC50 [1] [nM]	Ki [1] [nM]	recovery at 10 μM [2] [%]	recovery at 10 μM [3] [%]	nH [4]	IC50 [4] [nM]	Ki [4] [nM]	EC50 [5] [nM]	Compound	further results
2.0	1400	640	80	75	3.8	1600	850	1	CCC(C)[C@H](NC(=O)Cc1ccccc1F)C(=O)N[C@]1(C(=O)N[C@H](C(N)=S)C(C)CC)CCc2[nH]c3c(Cl)cc(F)cc3c2C1 (stereo partly drawn) [Compound 68, (R)-8-chloro-6-fluoro-3-{(S)-2-[2-(2-fluorophenyl)acetylamino]-3-methylpentanoylamino}-2,3,4,9-tetrahydro-1H-carbazole-3-carboxylic acid ((S)-2-methyl-1-thiocarbamoylbutyl)amide]	Relative LH concentration (%) (averages ± SEM compared with the concentration before treatment) ([6]; time 0 h): 95.0 ± 9.3%; Relative LH concentration (%) (averages ± SEM compared with the concentration before treatment) ([6]; time +4 h): 17.4 ± 3.3%; Relative LH concentration (%) (averages ± SEM compared with the concentration before treatment) ([6]; time +6 h): 16.0 ± 1.5%; Relative LH concentration (%) (averages ± SEM compared with the concentration before treatment) ([6]; time +8 h): 12.9 ± 1.0%; Relative LH concentration (%) (averages ± SEM compared with the concentration before treatment) ([6]; time +12 h): 16.0 ± 2.6%; Relative LH concentration (%) (averages ± SEM compared with the concentration before treatment) ([6]; time +24 h): 65.7 ± 10.8%; Relative LH concentration (%) (averages ± SEM compared with the concentration before treatment) ([6]; time +30 h): 78.1 ± 7.7%; Relative LH concentration (%) (averages ± SEM compared with the concentration before treatment) ([6]; time −24 h (before treatment)): 105.4 ± 12.7%
2.3	1900	840	69	84	2.3	1500	810	0.27	CCC(C)[C@H](NC(=O)Cc1ccccc1F)C(=O)N[C@]1(C(=O)N[C@H](C(N)=S)C(C)CC)CCc2[nH]c3c(C(F)(F)F)cccc3c2C1 (stereo partly drawn) [Compound 76, (R)-3-{(S)-2-[2-(2-fluorophenyl)acetylamino]-3-methylpentanoylamino}-8-trifluoromethyl-2,3,4,9-tetrahydro-1H-carbazole-3-carboxylic acid ((S)-2-methyl-1-thiocarbamoylbutyl)amide]	
									CC(C)OC(=O)c1cn(Cc2c(F)cccc2F)c2sc(-c3ccc(NC(=O)C(C)C)cc3)c(CN(C)Cc3ccccc3)c2c1=O [Compound T-98475]	bioavailability [7]: low; receptor affinity [8]: high
									CCC(C)[C@H](NC(=O)[C@@]1(NC(=O)[C@@H](NC(=O)OCc2ccccc2)C(C)CC)CCc2[nH]c3c(Cl)cc(Cl)cc3c2C1)C(N)=O (stereo partly drawn) [Example 295 from WO 03/051837 A2, Benzyl {(S)-1-[(R)-3-((S)-1-carbamoyl-2-methylbutylcarbamoyl)-6,8-dichloro-2,3,4,9-tetrahydro-1H-carbazol-3-ylcarbamoyl]-2-methylbutyl]carbamate, reference compound]	recovery at 1 μM ([2]; 1 μM): 0%; recovery at 1 μM ([3]; 1 μM): 0%; solubility [9]: < 0.05 µg/mL
